Values quoted from earlier work as cited in patent US20190053509A1, “NITROUS OXIDE MIXTURES AND METHODS OF USE” (Korvata Inc., priority 2015, published 2019).
Where two headings read alike, the source gives them in different places.

Experiments:
[1] = 101.3 kPa (1 atm); for Bunsen solubility coefficient in olive oil: olive oil at 22° C.; for Bunsen solubility coefficient in water: water at 0° C.
[2] = relative to nitrogen standardized to 1.0; from J Applied Physiology 1994; 76(1): 439-444

Compound | Bunsen solubility coefficient in olive oil [1] [L gas/L] | Bunsen solubility coefficient in water [1] [L gas/L] | RNP (Relative Narcotic Potency) [2] | lipid solubility (25° C. and 36 psi) [mg/mL] | lipid solubility (25° C. and 181 psi) [mg/mL]
[Xe] [Xe, xenon] | 1.9 | 0.1920 | – | – | –
[Kr] [Kr, krypton] | 0.44 | 0.0856 | 7.1 | – | –
[Ne] [Ne, neon] | 0.052 | 0.0101 | 0.3 | – | –
[N-]=[N+]=O [Example N2O, nitrous oxide] | 3.6 | 1.0710 | 39 | 7.08 | 23.14
[Ar] [Ar, argon] | 0.15 | 0.0421 | 2.3 | – | –
O=O [Example O2, oxygen] | 0.11 | 0.0387 | – | – | –
[He] [He, helium] | 0.015 | 0.0078 | 0.045 | – | –
